# Experimental data: ChEMBL document CHEMBL3988442, “University of Dundee, Small-Polar-MMV Screening Library” (2021)
# Molecular target: T1, Coenzyme A biosynthesis bifunctional protein CoaBC (Mycobacterium tuberculosis (strain ATCC 25618 / H37Rv), UniProt P9WNZ1)
# T1 sequence (P9WNZ1 whole entry): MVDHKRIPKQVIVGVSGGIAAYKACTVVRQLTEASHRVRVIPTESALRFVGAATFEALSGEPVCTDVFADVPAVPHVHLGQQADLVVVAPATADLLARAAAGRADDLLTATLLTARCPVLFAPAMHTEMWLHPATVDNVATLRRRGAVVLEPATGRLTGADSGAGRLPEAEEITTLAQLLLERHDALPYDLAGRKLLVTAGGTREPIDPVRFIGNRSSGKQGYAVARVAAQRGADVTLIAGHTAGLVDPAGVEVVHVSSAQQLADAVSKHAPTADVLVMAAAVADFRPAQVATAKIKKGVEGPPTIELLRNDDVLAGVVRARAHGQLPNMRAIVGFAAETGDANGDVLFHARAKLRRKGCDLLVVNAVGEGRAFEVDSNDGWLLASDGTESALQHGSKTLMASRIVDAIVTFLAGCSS
# Assay: Biomol Green assay for MtCoaBC inhibitor, OD650 read
# Type: functional
row,SMILES,IC50 [µM]
1,Cc1cc(N2CCC(c3ncc[nH]3)CC2)nc(N)n1,> 30.2
2,NS(=O)(=O)c1cc(C(=O)N2CCCCC2)cs1,> 30.2
3,COC1CCN(CCNC(=O)NC(C)c2ccc(F)c(F)c2)CC1 (stereo unspecified),> 30.2
4,CN(C)c1nccc(C2CCCCN2Cc2cnn3cccnc23)n1 (stereo unspecified),> 30.2
5,CC(=O)Nc1ccc(Oc2cccc(CN3CCCC3)c2)cc1,> 50.1
6,CN(Cc1cccnc1)CC1CC12CCN(Cc1nccs1)CC2 (stereo unspecified),> 50.1
7,CN(C)C(C(=O)NCc1cc(C(C)(C)C)n[nH]1)c1ccc(F)cc1 (stereo unspecified),> 30.2
8,Cc1cc(C)n(C2CN(CC(=O)N(C)Cc3cnn(C)c3)C2)n1,> 30.2
9,CN1CCCC(CNC(=O)N(C)Cc2ccc(Cl)c(F)c2)C1 (stereo unspecified),> 30.2
10,NC(Cc1nc(-c2ccccc2)no1)c1ccccc1 (stereo unspecified),> 30.2
11,Cc1nccnc1-n1c(COCC(=O)O)nc2c(C)cccc21,> 50.1
12,Cc1[nH]ncc1C(=O)NCC(CO)Cc1ccc(Cl)cc1 (stereo unspecified),> 30.2
13,Cc1nnc(CN(Cc2ccc3c(c2)OCO3)C2CCCCC2)o1,> 30.2
14,CCc1cc(NCCN2CCNC2=O)n2nccc2n1,> 30.2
15,Cc1nonc1OCCNC(=O)COc1ccc(F)cc1F,> 30.2
16,Cc1sc(NC(=O)CN(C)CCOc2cccc(F)c2)c(C)c1C,> 30.2
17,O=C1COC[C@H]([C@H](O)c2ccc(NC(=O)c3cccnc3)cc2)N1,> 30.2
18,COCCNC(=O)CCNc1cc(C)nc(-c2ccncc2)n1,> 30.2
19,CCOc1ccc(C(=O)CC(SC2CCCCC2)C(=O)O)cc1 (stereo unspecified),> 50.1
20,Cc1cc(C)nc(N2CCC(C(=O)Nc3ncc[nH]3)CC2)n1,> 30.2
21,Cc1ccc(NC2CCN(C(=O)c3cccc4[nH]ncc34)CC2)nn1,> 30.2
22,CNC(=O)CCc1cccc(C2CCCN(c3cc(C)ncn3)C2)n1 (stereo unspecified),> 30.2
23,Cc1ncnc2c1CCN(C(=O)c1ccoc1)CC2,> 30.2
24,CCc1ncncc1C(=O)NCCNS(=O)(=O)c1ccc(C)cc1,> 30.2
25,O=C(NCCC(=O)N1CCCC1)c1ccc(SCc2cccnc2)cc1,> 30.2
26,CN(C)C(=O)CN1CCC2(CCCN(Cc3cccn3C)C2)C1=O (stereo unspecified),> 30.2

row,SMILES,IC50 [µM]
1,CC(C)c1[nH]c2ncccc2c1CN1CCC(O)CC1,> 30.2
2,NC(=O)N1CCC2(CC1)CN(c1ccsc1)C(=O)CO2,> 30.2
3,O=C(NCc1ccon1)c1c(F)cc(Br)cc1F,> 30.2
4,OCCN(Cc1ccncc1)CC1(c2ccc(Cl)cc2)CCCC1,> 30.2
5,CCNC(=O)NC(=O)CNC(C)(C)c1ccc2c(c1)OCCO2,> 30.2
6,O=C1O[C@@H]2CN(c3cnccn3)C[C@@H]2N1CCCc1ccc(F)cc1,> 30.2
7,Cc1cc(C)cc(-n2ncc3c2CCCC3N)c1 (stereo unspecified),> 30.2
8,COCCC1CCN([C@@H]2c3ccccc3C3(CCNCC3)[C@H]2O)CC1,> 30.2
9,Cc1ccc(CN2CCC3(CC2)C(=O)Nc2ccccc23)s1,> 30.2
10,Cc1nc(-c2cc(C(=O)O)co2)cs1,> 30.2
11,CN1C[C@@H](C(=O)N2CCCOCC2)[C@@]2(CCc3ccccc3C(=O)N2)C1,> 30.2
12,Cc1ccc(CNCCN2CCOCC2)o1,> 30.2
13,Cn1cnc(S(=O)(=O)NCCN2CCCCCC2)c1Cl,> 30.2
14,CN1CCC(c2cccc(C(=O)N(C)C)n2)CC1,> 30.2
15,COc1cccc(CNC(=O)c2cc(C)nc(N3CCCCC3)n2)c1,> 30.2
16,O=S(=O)(c1cccc(F)c1)N1C[C@@H]2COC[C@]2(COCC2CC2)C1,> 30.2
17,CCC(=O)NCCc1cc2nc(-c3ccncc3)ccn2n1,> 30.2
18,CNC(=O)[C@@]12CCC3(CCN(S(=O)(=O)C4CC4)CC3)[C@@H]1CN(C(C)=O)C2,> 30.2
19,O=C(Cc1cccc2ccccc12)N1CCC(Nc2cccnn2)CC1,> 30.2
20,COc1c(C2CCCN2CC(=O)Nc2nccs2)c(C)nn1C (stereo unspecified),> 30.2
21,CC(C)NC(=O)[C@@H]1C[C@H](N)CN1C(=O)C1(c2ccc(Cl)cc2)CCC1,> 30.2
22,Cc1cccc(CN2CC3(CCN(C(N)=O)CC3)OCC2=O)n1,> 30.2
23,CN(C)C(=O)c1ccc(C(C(=O)O)N(C)Cc2ccccc2Cl)cc1 (stereo unspecified),> 30.2
24,Cn1cc(N2C(=O)CC[C@@H]3[C@H]2CCN3Cc2nccs2)cn1,> 30.2
25,Cc1nc(C)c(CC(=O)N2CCC(c3ccn4nccc4n3)CC2)s1,> 30.2
